The source of these data is PMC11241008, “Response Plasticity of Drosophila Olfactory Sensory Neurons” (International Journal of Molecular Sciences, 2024).

For one test, the target named is T1, Or56a (Drosophila melanogaster, UniProt Q9V8Y7).
T1 construct: native receptor in ab4B olfactory sensory neurons of excised open antenna, with endogenous Orco; GCaMP6f calcium reporter; no heterologous expression; with Odorant receptor coreceptor
T1 sequence (Q9V8Y7 1-419): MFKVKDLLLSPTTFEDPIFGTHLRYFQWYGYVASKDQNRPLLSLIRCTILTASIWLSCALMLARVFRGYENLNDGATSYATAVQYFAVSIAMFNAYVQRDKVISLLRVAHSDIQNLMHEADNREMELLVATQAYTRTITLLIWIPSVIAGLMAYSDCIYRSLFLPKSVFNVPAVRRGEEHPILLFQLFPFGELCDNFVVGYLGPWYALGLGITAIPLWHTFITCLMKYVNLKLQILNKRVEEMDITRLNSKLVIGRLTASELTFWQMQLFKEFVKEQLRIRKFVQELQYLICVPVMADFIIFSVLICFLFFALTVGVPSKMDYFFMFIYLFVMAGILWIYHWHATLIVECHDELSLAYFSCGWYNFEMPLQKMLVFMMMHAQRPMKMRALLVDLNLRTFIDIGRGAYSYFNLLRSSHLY
T1 sequence (Q9VNB5 1-486 partner): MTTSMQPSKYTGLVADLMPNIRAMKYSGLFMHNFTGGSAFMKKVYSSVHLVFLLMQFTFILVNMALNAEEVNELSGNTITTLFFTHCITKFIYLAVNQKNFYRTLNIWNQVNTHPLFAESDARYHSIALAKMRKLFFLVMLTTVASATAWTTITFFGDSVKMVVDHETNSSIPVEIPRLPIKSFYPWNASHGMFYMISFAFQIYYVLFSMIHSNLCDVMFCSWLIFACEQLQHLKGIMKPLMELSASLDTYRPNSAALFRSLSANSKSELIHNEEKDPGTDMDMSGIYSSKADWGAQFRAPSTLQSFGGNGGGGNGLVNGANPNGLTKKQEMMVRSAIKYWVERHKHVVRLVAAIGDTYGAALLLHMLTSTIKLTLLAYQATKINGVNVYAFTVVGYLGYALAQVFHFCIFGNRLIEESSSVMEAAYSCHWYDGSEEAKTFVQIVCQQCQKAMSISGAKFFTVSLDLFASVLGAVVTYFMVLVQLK
Put plainly: GCaMP6f calcium imaging of native OSN somata, open antenna. Particulars: agonist; Drosophila Ringer pH 7.3; Hill coefficient 0.6; concentration as applied; n = 9.

The target in the next test is T2, Or22a (Drosophila melanogaster, UniProt P81909).
T2 construct: native receptor in ab3A olfactory sensory neurons of excised open antenna, with endogenous Orco; GCaMP6f calcium reporter; no heterologous expression; with Odorant receptor coreceptor
T2 sequence (P81909 1-397): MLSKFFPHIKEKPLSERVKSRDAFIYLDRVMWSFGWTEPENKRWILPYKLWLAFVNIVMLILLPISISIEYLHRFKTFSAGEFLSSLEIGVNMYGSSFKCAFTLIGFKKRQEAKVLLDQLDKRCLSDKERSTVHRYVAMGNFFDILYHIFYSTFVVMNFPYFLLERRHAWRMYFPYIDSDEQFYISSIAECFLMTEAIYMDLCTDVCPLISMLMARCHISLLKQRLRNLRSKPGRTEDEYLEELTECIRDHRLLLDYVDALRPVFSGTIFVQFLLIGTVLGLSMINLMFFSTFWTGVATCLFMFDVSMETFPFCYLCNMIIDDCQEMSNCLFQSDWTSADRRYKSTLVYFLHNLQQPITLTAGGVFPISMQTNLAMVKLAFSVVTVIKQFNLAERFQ
T2 sequence (Q9VNB5 1-486 partner): T1 sequence (Q9VNB5 1-486 partner)
Described as above. To be noted: agonist; Drosophila Ringer pH 7.3; Hill coefficient 0.8; concentration as applied; n = 12.

As for `CC1CCCC2(C)CCCCC12O` (racemic) [geosmin], the EC50 on Or56a worked out at 0.025 µM.

With `CCCCCC(=O)OCC` [ethyl hexanoate], the EC50 at Or22a turned out to be 1.5 µM.
